Test results published in US20190151283A1, “NON-STEROIDAL SELECTIVE GLUCOCORTICOID RECEPTOR AGONISTIC MODULATORS (SEGRAMs) AND USES THEREOF” (ASSOCIATION POUR LA RECHERCHE À L'IGBMC (ARI), priority 2017, published 2019).
Blank lines part the entries; values can stand above or below the compound they belong to.

Experiments:
[1] = system: Balb/C mice; test: Skin atrophy after 8-day topical treatment of dorsal skin; format: in vivo, mouse
Excerpt: To investigate whether, similarly to Dex, a topical administration of CpdX could result in a skin atrophy, Balb/C mice were shaved on the dorsal skin. Ethanol (vehicle), Dex, CpdX or either one of its two enantiomers CpdX(eA) or CpdX(eB), as well as the deuterated form CpdX-D3 or either one of its two enantiomers CpdX-D3(eA) or CpdX-D3(eB), were topically applied onto the dorsal skin for 8 days.
Upon completion of the treatments, RNA transcripts were extracted from dorsal skin samples and the transcripts of Kindlin-1 and REDD1 genes were analyzed by q-RT-PCR. Histological and morphometric analyses of the dorsal skin were also performed.

[2] = system: B6 male mice; test: Bone formation after three-month treatment (micro-CT, WNT16 transcripts); format: in vivo; details: mouse tibia, three months
[3] = system: B6 male mice; test: Body weight and body composition after three-month treatment; format: in vivo, mouse; details: s.c. 1 mg/kg daily, 3 months
Protocol: B6 male mice (8-week-old) were daily subjected for three months to a subcutaneous injection of either vehicle (NaCl 0.9%), Dex, CpdX or CpdX-D3 (1 mg/kg body weight, diluted in vehicle. A pDEXA machine was used to determine the lean mass and fat mass. The statistical significance was calculated through Krustal-Walis test followed by a Dunn's multiple comparison test, *p<0.05; **p<0.01; ***p<0.001.

[4] = system: B6 male mice; test: Fatty liver after three-month treatment; format: in vivo, mouse; details: three months
Protocol: B6 male mice (8-week-old) were daily subjected for three months to a subcutaneous injection of either vehicle (NaCl 0.9%), Dex, CpdX, CpdX(eA), CpdX(eB), CpdX-D3, CpdX-D3(eA) or CpdX-D3(eB) (1 mg/kg body weight, diluted in vehicle). Following this treatment, blood was collected at 10 a.m. by retro-orbital puncture in lithium-heparin coated vials. The plasmatic levels of total cholesterol and bile acids were determined.
Liver samples were harvested. […] RNA transcripts were extracted from liver samples and the transcripts of fatty acid synthase (FASN) and Stearoyl-CoA desaturase 1 (SCD1) genes were analyzed by q-RT-PCR.

[5] = system: B6 male mice; test: Corticosterone synthesis and adrenal gland after three-month treatment; format: in vivo, mouse
Protocol: (§1) B6 male mice (8-week-old) were daily subjected for three months to either a subcutaneous injection of vehicle (NaCl 0.9%), Dex, CpdX, CpdX(eA), CpdX(eB), CpdX-D3, CpdX-D3(eA) or CpdX-D3(eB) (1 mg/kg body weight, diluted in vehicle).
Following this long-term treatment, blood was collected at 10 a.m. and 6 p.m. by retro-orbital puncture in lithium-heparin coated vials, and the plasmatic level of corticosterone was determined. Adrenal glands were harvested and weighted. RNA transcripts were extracted and transcripts of the Cyp11a, Cyp11b1, Cyp11b2 and HSD3β genes were analyzed by q-RT-PCR. Histological analyses of the adrenal glands were also carried out.

[6] = system: B6 male mice; test: Organ weights (thymus, spleen, adrenal gland, kidney) after three-month treatment; format: in vivo, mouse; details: s.c. 1 mg/kg daily, three months
Protocol: as §1, with “to” for “to either”, “of either” for “of”, “vehicle). Following these treatments, four organs (thymus, spleen, adrenal gland and kidney) were harvested and weighted.” for “vehicle).”

[7] = system: B6 male mice; test: Insulin level, insulin tolerance test and liver insulin signalling after three-month treatment; format: in vivo, mouse
Protocol: B6 male mice (8-week-old) were subjected daily for three months to a subcutaneous injection of either vehicle (NaCl 0.9%), Dex, CpdX, CpdX(eA), CpdX(eB), CpdX-D3, CpdX-D3(eA) or CpdX-D3(eB) (1 mg/kg body weight, diluted in vehicle). After three months, the blood was collected at 10 a.m. by retro-orbital puncture in lithium-heparin coated vials, and the plasmatic level of insulin was determined.
For the intraperitoneal insulin tolerance test (IPITT), mice were fasted for 6 hours before test. The blood glucose concentration was measured both before (T0) and during a one-hour period after insulin i.p. injection (0.75 U/kg body weight).
Following this three-month treatment, liver samples were harvested and lysed in the RIPA buffer (20 mM Tris pH 8, 150 mM NaCl, 10% glycerol, 1% NP-40 and 2 mM EDTA). Antibodies from Cell Signaling were used to assess by Western-Blotting the relative level of p-IRS1 (S318), IRS-1, p-AKT (S473) and AKT.

[8] = system: B6 male mice; test: Blood glucose and intraperitoneal glucose tolerance test after three-month treatment; format: in vivo, mouse
Protocol: B6 male mice (8-week-old) were daily subjected for three months to a subcutaneous injection of either vehicle (NaCl 0.9%), Dex, CpdX, CpdX(eA), CpdX(eB), CpdX-D3, CpdX-D3(eA) or CpdX-D3(eB) (1 mg/kg body weight, diluted in vehicle). Mice were over-night-fasted. Mouse blood glucose concentration was measured before (T0) and during two hours (T120) after glucose i.p. injection ([…] body weight).

[9] = system: B6 male mice; test: Bone formation after three-month treatment (micro-CT, WNT16 transcripts); format: in vivo, mouse; details: three months
Protocol: B6 male mice (8-week-old) were daily subjected for three months to either a subcutaneous injection of vehicle (NaCl 0.9%), Dex, CpdX, CpdX(eA), CpdX(eB), CpdX-D3, CpdX-D3(eA) or CpdX-D3(eB) (1 mg/kg body weight, diluted in NaCl 0.9%).
From each animal included in the experiments, one femur and the ipsilateral tibia were dissected and preserved in 70% ethanol for further bone microstructure analysis by micro-CT. The FX Quantum micro-CT scanner (Perkin Elmer) was used to perform measurements at the distal femur and midshaft tibia. All scans were performed with an isotropic voxel size of 10 μm, 160 μA tube current and 90 kV tube voltage.
Morphological 3D measurements were performed using the CTAn software (Bruker). Cortical bone parameters, which were measured in the tibia midshaft, included measures of the bone volume fraction as compared to the total volume, cortical thickness, total area, bone area and marrow area. The region of interest was selected from below the distal tibial crest and continued for 20 slices toward the proximal end of the tibia. Trabecular bone parameters were measured in the distal metaphysis of the femurs and included bone volume fraction, trabecular thickness, trabecular number and trabecular spacing. The region of interest was selected from below the distal growth plate where the epiphyseal cap structure completely disappeared and continued for 100 slices toward the proximal end of the femur.
The statistical significance as compared to vehicle treatment was calculated through one-way ANOVA test followed by Dunn's multiple comparison test, *p<0.05; **p<0.01; ***p<0.001; ****p<0.0001.

[10] = molecular target: T1, glucocorticoid receptor (GR) (Mus musculus, UniProt P06537); test: GR transcriptional functions in mouse ears after topical 18-hour treatment (q-RT-PCR); format: in vivo; details: in vivo transcriptional analyses, 1 nmole/cm^2
T1 construct: RNA transcripts were then extracted from mouse ears; from tissue; host or cells: ear skin of Balb/C mice (in vivo topical treatment)
T1 sequence (P06537 1-792): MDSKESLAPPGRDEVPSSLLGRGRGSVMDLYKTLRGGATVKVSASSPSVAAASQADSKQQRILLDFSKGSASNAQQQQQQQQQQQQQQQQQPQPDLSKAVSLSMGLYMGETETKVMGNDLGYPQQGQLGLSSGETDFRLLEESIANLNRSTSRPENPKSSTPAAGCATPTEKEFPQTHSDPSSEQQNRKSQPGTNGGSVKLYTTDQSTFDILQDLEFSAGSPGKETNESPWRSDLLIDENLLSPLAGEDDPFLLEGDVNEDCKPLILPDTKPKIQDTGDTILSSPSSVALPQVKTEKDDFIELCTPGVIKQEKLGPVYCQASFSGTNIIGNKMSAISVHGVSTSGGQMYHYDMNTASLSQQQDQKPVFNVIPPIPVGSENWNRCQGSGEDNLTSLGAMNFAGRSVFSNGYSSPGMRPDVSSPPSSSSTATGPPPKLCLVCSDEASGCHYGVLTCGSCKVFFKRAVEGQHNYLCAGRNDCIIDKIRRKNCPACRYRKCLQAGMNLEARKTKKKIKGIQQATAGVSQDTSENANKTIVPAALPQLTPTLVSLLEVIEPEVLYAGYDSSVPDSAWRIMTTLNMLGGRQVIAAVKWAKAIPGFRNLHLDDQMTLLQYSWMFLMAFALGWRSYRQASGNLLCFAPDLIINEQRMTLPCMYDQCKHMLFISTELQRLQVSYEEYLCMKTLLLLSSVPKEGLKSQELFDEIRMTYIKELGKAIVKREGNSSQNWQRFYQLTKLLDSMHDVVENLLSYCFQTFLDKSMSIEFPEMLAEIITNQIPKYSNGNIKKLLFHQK
Protocol: RNA transcripts were then extracted from mouse ears and the transcripts of 4 genes were analyzed by q-RT-PCR: • (i) the directly GR-transactivated gene of the mTOR inhibitor REDD1, • (ii) the GR-directly transrepressed gene of keratin 5 (K5) and • (iii) the GR-indirectly “tethered” transrepressed genes of interleukin-1β (IL-1β) and interleukin-6 (IL-6), both being activated in presence of 12-O-tetradecanoylphorbol-13-acetate (TPA).

epidermal thickness decreases by ([1]; eight-day topical treatment, morphometric analysis): ≈ 65% | skin atrophy, histological analysis ([1]; eight-day topical treatment, 'in marked contrast' = no severe atrophy as with Dex): severely induces a skin atrophy | transcription of the Kindlin-1 gene in dorsal skin ([1]; topical 8 days, 1 nmole/cm^2, 'but not' = not decreased): strongly decreased | transcription of the REDD1 gene in dorsal skin ([1]; topical 8 days, 1 nmole/cm^2, 'but not' = not increased): significantly increased | transcription of the WNT16 gene decreased by [2]: 50% | lipid deposition in the liver ([4]; 5% Red oil staining of frozen sections): marked lipid deposition | transcripts of fatty acid synthase (FASN) and Stearoyl-CoA desaturase 1 (SCD1) in liver ([4]; q-RT-PCR, 'but not' = no increase): increase | blood cholesterol and bile acids' levels ([4]; 'but not' = no clear increase): clear increase | plasmatic corticosterone levels ([5]; at both 10 a.m. and 6 p.m., compared to control mice (Vehicle)): much lower | cortex layers, most notably the fasciculata zone, of the adrenal glands ([5]; three months, histology): drastically decreased | glomerulosa zone of the adrenal cortex ([5]; three months, histology, 'but not' = not decreased): drastically decreased | transcripts of Cyp11a, Cyp11b1 and HSD3β genes in adrenal glands ([5]; three months, q-RT-PCR): inhibited | transcript of the Cyp11b2 gene in adrenal glands ([5]; three months, q-RT-PCR, 'but not' = not inhibited): inhibited | kidney weight [6]: weak, but significant loss | spleen weight decreased by [6]: more than 50% | weight of the adrenal gland [6]: decreased | bone area ([9]; s.c. 1 mg/kg daily, micro-CT): reduced | cortical thickness ([9]; s.c. 1 mg/kg daily, micro-CT): drastically decreased | tibia cortical bone volume as compared to the total volume ([9]; s.c. 1 mg/kg daily, micro-CT): significantly decreased | marrow area ([9]; s.c. 1 mg/kg daily, 'but not' = not reduced): but not | number of trabecula ([9]; data not shown): increase | trabecular bone volume ([9]; data not shown): increased | trabecular spacing ([9]; data not shown): decrease | trabecular thickness ([9]; data not shown): no change
Compound: C[C@@H]1C[C@H]2[C@@H]3CCC4=CC(=O)C=C[C@]4(C)[C@@]3(F)[C@@H](O)C[C@]2(C)[C@@]1(O)C(=O)CO [Dex, Dexamethasone, reference compound]
fat mass ([3]; pDEXA): disproportional increase | lean percentage / lean mass ([3]; pDEXA): decrease | body weight ([3]; compared with vehicle): net loss | thymus apoptosis / thymus found [6]: no thymus was found in sixteen out of nineteen mice | IPITT test, response to insulin ([7]; one hour after insulin i.p. 0.75 U/kg): significant impaired response to insulin | blood insulin level (hyperinsulinemia) ([7]; three months, 10 a.m., 'but not' = no hyperinsulinemia): hyperinsulinemia | phosphorylation of insulin-stimulated protein kinase B (p-AKT S473) ([7]; western-blot, liver): decreased | phosphorylated insulin receptor substrate 1 (p-IRS1 S318) in liver extracts ([7]; western-blot, 'but not' = no decrease): decrease | blood glucose level ([8]; three months, over-night fasting, vs vehicle and CpdX compounds): significantly higher | blood glucose level in intraperitoneal glucose tolerance test (IPGTT) ([8]; two-hour period after glucose i.p. injection (2 mg/kg body weight)): significant higher

GR functions induced (direct transactivation, direct transrepression, indirect tethered transrepression) [10]: all three GR functions
Compound: Cc1ccc2c(NC[C@](O)(CC(C)(C)c3cc(F)cc4c3OCC4)C(F)(F)F)cccc2n1 [Mapracorat, reference compound]
